Experimental data taken from ChEMBL document CHEMBL1201862, “PubChem BioAssay data set” (2004).
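Protocol summary: plate cells (96-well), add compound at 5 concentrations, incubate 48 h, interpolate endpoints linearly. GI50 is the concentration that inhibits growth by half.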 Calls of active or inactive are those of the source. Rule as the data show it: active = GI50 up to about 1.1 µM and inactive = higher.

Assays:
Assay in all cases: NCI tumour cell line growth inhibition, 48 h
SK-MEL-28 = test system: SK-MEL-28
SW-620 = test system: SW-620
HT-29 = test system: HT-29
COLO 205 = test system: COLO 205
M14 = test system: M14
HOP-62 = test system: HOP-62
SN12C = test system: SN12C
MOLT-4 = test system: MOLT-4
OVCAR-5 = test system: OVCAR-5
NCI-H226 = test system: NCI-H226
DU-145 = test system: DU-145
RXF 393 = test system: RXF 393
SNB-75 = test system: SNB-75
OVCAR-8 = test system: OVCAR-8
UO-31 = test system: UO-31
LOX IMVI = test system: LOX IMVI
UACC-257 = test system: UACC-257
SF-268 = test system: SF-268
SNB-19 = test system: SNB-19
Hs-578T = test system: Hs-578T
HOP-92 = test system: HOP-92
MCF7 = test system: MCF7
U-251 = test system: U-251
MDA-N = test system: MDA-N
OVCAR-3 = test system: OVCAR-3
SK-MEL-2 = test system: SK-MEL-2
OVCAR-4 = test system: OVCAR-4
KM12 = test system: KM12
786-0 = test system: 786-0
NCI/ADR-RES = test system: NCI/ADR-RES
CCRF-CEM = test system: CCRF-CEM
SF-539 = test system: SF-539
HCT-15 = test system: HCT-15
K562 = test system: K562
RPMI-8226 = test system: RPMI-8226
SK-MEL-5 = test system: SK-MEL-5
MDA-MB-435 = test system: MDA-MB-435
UACC-62 = test system: UACC-62
NCI-H522 = test system: NCI-H522
SF-295 = test system: SF-295
TK-10 = test system: TK-10
EKVX = test system: EKVX
IGROV-1 = test system: IGROV-1
HCC 2998 = test system: HCC 2998
NCI-H23 = test system: NCI-H23
T47D = test system: T47D
A498 = test system: A498
MDA-MB-231 = test system: MDA-MB-231
PC-3 = test system: PC-3
HCT-116 = test system: HCT-116
Malme-3M = test system: Malme-3M
HL-60 = test system: HL-60
A549 = test system: A549
ACHN = test system: ACHN
SR = test system: SR
BT-549 = test system: BT-549
SK-OV-3 = test system: SK-OV-3
CAKI-1 = test system: CAKI-1
NCI-H460 = test system: NCI-H460

CCCCCCCCCCCCNC(=O)CCC(NC(=O)c1ccc(N(C)Cc2cnc3nc(N)nc(N)c3n2)cc1)C(=O)NCCCCCCCCCCCC (centres undefined)
GI50 (SK-MEL-28): 43.3 µM (inactive) | GI50 (SW-620): 29.6 µM (inactive) | GI50 (HT-29): > 100 µM (inactive) | GI50 (COLO 205): > 100 µM (inactive) | GI50 (M14): 56.5 µM (inactive) | GI50 (HOP-62): 23.6 µM (inactive) | GI50 (SN12C): 91.8 µM (inactive) | GI50 (MOLT-4): > 100 µM (inactive) | GI50 (OVCAR-5): > 100 µM (inactive) | GI50 (NCI-H226): > 100 µM (inactive) | GI50 (DU-145): > 100 µM (inactive) | GI50 (RXF 393): 18.4 µM (inactive) | GI50 (SNB-75): 3.68 µM (inactive) | GI50 (OVCAR-8): 16.9 µM (inactive) | GI50 (UO-31): > 100 µM (inactive) | GI50 (LOX IMVI): 17 µM (inactive) | GI50 (UACC-257): > 100 µM (inactive) | GI50 (SF-268): 78.3 µM (inactive) | GI50 (SNB-19): 22.9 µM (inactive) | GI50 (Hs-578T): 27.2 µM (inactive) | GI50 (HOP-92): 9.44 µM (inactive) | GI50 (MCF7): 30.6 µM (inactive) | GI50 (U-251): 12.3 µM (inactive) | GI50 (MDA-N): 41.7 µM (inactive) | GI50 (OVCAR-3): 31.5 µM (inactive) | GI50 (SK-MEL-2): 30 µM (inactive) | GI50 (OVCAR-4): 64.1 µM (inactive) | GI50 (KM12): 46.7 µM (inactive) | GI50 (786-0): 22.6 µM (inactive) | GI50 (NCI/ADR-RES): > 100 µM (inactive) | GI50 (CCRF-CEM): 25.8 µM (inactive) | GI50 (SF-539): > 100 µM (inactive) | GI50 (HCT-15): > 100 µM | GI50 (K562): 18.5 µM (inactive) | GI50 (RPMI-8226): > 100 µM (inactive) | GI50 (SK-MEL-5): > 100 µM (inactive) | GI50 (MDA-MB-435): 52.8 µM (inactive) | GI50 (UACC-62): 55.5 µM (inactive) | GI50 (NCI-H522): > 100 µM (inactive) | GI50 (SF-295): 25.4 µM (inactive) | GI50 (TK-10): 38.3 µM (inactive) | GI50 (EKVX): > 100 µM (inactive) | GI50 (IGROV-1): 36.1 µM (inactive) | GI50 (HCC 2998): 45.7 µM (inactive) | GI50 (NCI-H23): 53.3 µM (inactive) | GI50 (T47D): 24.4 µM (inactive) | GI50 (A498): 42.8 µM (inactive) | GI50 (MDA-MB-231): 10.1 µM (inactive) | GI50 (PC-3): > 100 µM (inactive) | GI50 (HCT-116): 26.6 µM (inactive) | GI50 (Malme-3M): 95.5 µM (inactive) | GI50 (HL-60): 31.8 µM (inactive) | GI50 (A549): > 100 µM (inactive) | GI50 (ACHN): > 100 µM (inactive) | GI50 (SR): 11.9 µM (inactive) | GI50 (BT-549): 41.2 µM (inactive)

O=C1OC(c2ccccc2)=N/C1=C\c1ccc([N+](=O)[O-])cc1
GI50 (SK-MEL-28): > 100 µM (inactive) | GI50 (SW-620): > 100 µM (inactive) | GI50 (HT-29): > 100 µM (inactive) | GI50 (COLO 205): > 100 µM (inactive) | GI50 (M14): > 100 µM (inactive) | GI50 (HOP-62): 30.1 µM (inactive) | GI50 (SN12C): > 100 µM (inactive) | GI50 (MOLT-4): 15.1 µM (inactive) | GI50 (OVCAR-5): > 100 µM (inactive) | GI50 (NCI-H226): 3.96 µM (inactive) | GI50 (DU-145): 47.4 µM (inactive) | GI50 (RXF 393): 32.9 µM (inactive) | GI50 (SNB-75): 22.9 µM (inactive) | GI50 (OVCAR-8): 11.9 µM (inactive) | GI50 (UO-31): 50.7 µM (inactive) | GI50 (LOX IMVI): 26.4 µM (inactive) | GI50 (UACC-257): > 100 µM (inactive) | GI50 (SF-268): 32.8 µM (inactive) | GI50 (SNB-19): 40.6 µM (inactive) | GI50 (Hs-578T): 24.1 µM (inactive) | GI50 (HOP-92): 16.1 µM (inactive) | GI50 (MCF7): 60 µM (inactive) | GI50 (U-251): 19.7 µM (inactive) | GI50 (MDA-N): > 100 µM (inactive) | GI50 (OVCAR-3): 57.4 µM (inactive) | GI50 (SK-MEL-2): 27.4 µM (inactive) | GI50 (OVCAR-4): 34.5 µM (inactive) | GI50 (KM12): 54.8 µM (inactive) | GI50 (786-0): 26.9 µM (inactive) | GI50 (NCI/ADR-RES): 8.97 µM (inactive) | GI50 (CCRF-CEM): 13.8 µM (inactive) | GI50 (SK-OV-3): 34.7 µM (inactive) | GI50 (SF-539): 9.16 µM (inactive) | GI50 (HCT-15): > 100 µM | GI50 (K562): > 100 µM (inactive) | GI50 (RPMI-8226): 30.2 µM (inactive) | GI50 (SK-MEL-5): 66.8 µM (inactive) | GI50 (MDA-MB-435): > 100 µM (inactive) | GI50 (UACC-62): 26.5 µM (inactive) | GI50 (NCI-H522): 9.57 µM (inactive) | GI50 (SF-295): 32.7 µM (inactive) | GI50 (CAKI-1): 30.7 µM (inactive) | GI50 (TK-10): 28.8 µM (inactive) | GI50 (EKVX): 36 µM (inactive) | GI50 (IGROV-1): 27.9 µM (inactive) | GI50 (HCC 2998): > 100 µM (inactive) | GI50 (NCI-H23): 24.5 µM (inactive) | GI50 (T47D): 22.3 µM (inactive) | GI50 (NCI-H460): > 100 µM (inactive) | GI50 (A498): 35.4 µM (inactive) | GI50 (MDA-MB-231): 44.6 µM (inactive) | GI50 (PC-3): > 100 µM (inactive) | GI50 (HCT-116): 98.6 µM (inactive) | GI50 (HL-60): 24.4 µM (inactive) | GI50 (A549): 82 µM (inactive) | GI50 (ACHN): 14.3 µM (inactive) | GI50 (SR): 2.35 µM (inactive) | GI50 (BT-549): 15.3 µM (inactive)
